Measured values from article PMC9322950 (Pharmaceutics, 2022).
Values after ≈ are worked out from the molar mass of the structure shown.

Key:
clinical = conditions: human, in vivo
Method: All included patients were ≥ 18 years old, diagnosed with an advanced stage breast cancer, and provided written informed consent. Blood samples taken at routinely scheduled visits plus extensive collection over a 10-12 h dosing interval were gathered during the study. Collected samples were centrifuged, and plasma was stored at -80 °C allowing its conservation until drug level measurements. […] Moreover, information was reconciled with data collected in the randomized controlled medication adherence study in a subset of patients. […] The chromatographic separation was performed on a column XSelect HSS T3 2.1 × 75 mm, 3.5 μm (Waters®, Milford, MA, USA) using a mobile phase composed of a gradient of ammonium acetate 2 mM (+0.1 formic acid) and acetonitrile (+0.1 formic acid). […] The method was validated over the clinically relevant concentration range, i.e., from 0.5 to 500 ng/mL. […] One- and two-compartment models with first- or zero-order absorption, potentially including an absorption lag time were tested. Inter-individual variability was modeled exponentially and tested sequentially on all parameters. Additive, proportional, and mixed models for residual error were compared. Potential associations between post hoc individual parameter estimates and demographic or clinical characteristics were first visually explored and then tested in the model. […] The characteristics available for testing their effect on PD parameters were as follows: age, body weight, ALK, BILT, gamma-glutamyltransferase (GGT), albumin, AST, ALT, eGFR, association with fulvestrant, chemotherapy in the previous treatment line, and POCT measurement. […] Baseline values of continuous covariates were tested on the base ANC parameter while time-varying values were tested on Emax. Continuous covariates were centered and normalized on their median value and tested by linear or allometric functions as appropriate. Missing data were imputed to the population median value. Categorical covariates were coded as 0 or 1, and missing data were first treated as an additional category and then regrouped according to their parameter estimates. The first-order conditional estimation method with interaction (FOCEI) was used for model fitting with the ADVAN4 TRANS4 subroutine for the PK model and the ADVAN6 subroutine defining a system of ordinary differential equations for the PK/PD model. Models were selected based on the improvement in standard goodness-of-fit plots, precision of parameter estimates and eta shrinkage. […] The covariate analysis was performed by forward inclusion (significant level for ΔOFV ≤ -3.84, p ≤ 0.05) followed by backward deletion (significant level for ΔOFV ≥ 7.88, p ≤ 0.005). The final PK/PD model was evaluated with a non-parametric bootstrap using 502 replicates of the initial dataset. The generated median parameters and their CI95% were compared to the final model estimates. In addition, prediction-corrected visual predictive checks (pc-VPCs) were performed to diagnose potential model misspecification by visually comparing observed concentrations with prediction percentiles.

[1] = tested on: absolute neutrophil count (ANC); experiment: Semi-mechanistic PK/PD neutropenia model (exposure–toxicity relationship, ANC time course); type: in vivo, human; conditions: for Emax (maximum estimated drug effect on kprol) / ωEC50 (between-subject variability) / ωEmax (between-subject variability): final PK/PD model
Method: ANC was directly retrieved from the patients' medical records up to the date of the last PK observation. The most recent ANC value in the three months before palbociclib initiation was retained as the base value. Blood sampling for ANC measurement was performed either concomitantly or separately from that for palbociclib quantification. The proliferation, maturation, and homeostatic regulation of neutrophils were mimicked by a series of 5 compartments, as described in the model developed by Friberg et al.. This structural model was directly applied to our data. The first compartment represented stem cells and proliferating precursor cells in the bone marrow with the systematic renewal of proliferative cells' production modeled by the rate constant kprol. This compartment was followed by three transit compartments to account for the delay between proliferation and maturation according to the first-order rate constant ktr, defined as n+1/MTT , where MTT is the mean transit time of neutrophils. The last compartment characterized the blood circulation with the neutrophil elimination rate constant kcirc. The rate constants kprol, ktr, and […] assumed to be equal, as in the original model. […] ANCs were log-transformed before the analysis, and an additive error on the log scale was used to describe residual variability. Owing to long computation runtime, neutropenia model development was first performed by fixing the PK parameters that were estimated together with PD parameters in the final model. Potential associations between post hoc individual parameter estimates and demographic or clinical characteristics were first visually explored and then tested in the model. […] The characteristics available for testing their effect on PD parameters were as follows: age, body weight, ALK, BILT, gamma-glutamyltransferase (GGT), albumin, AST, ALT, eGFR, association with fulvestrant, chemotherapy in the previous treatment line, and POCT measurement. […] Despite high inter-individual variability on EC50, covariates were not tested on this parameter and were substituted by covariates on Emax as recommended in good practices for exposure-response analyses. Baseline values of continuous covariates were tested on the base ANC parameter while time-varying values were tested on Emax. Continuous covariates were centered and normalized on their median value and tested by linear or allometric functions as appropriate. Missing data were imputed to the population median value. Categorical covariates were coded as 0 or 1, and missing data were first treated as an additional category and then regrouped according to their parameter estimates. The first-order conditional estimation method with interaction (FOCEI) was used for model fitting with the ADVAN4 TRANS4 subroutine for the PK model and the ADVAN6 subroutine defining a system of ordinary differential equations for the PK/PD model. Models were selected based on the improvement in standard goodness-of-fit plots, precision of parameter estimates and eta shrinkage. […] The covariate analysis was performed by forward inclusion (significant level for ΔOFV ≤ -3.84, p ≤ 0.05) followed by backward deletion (significant level for ΔOFV ≥ 7.88, p ≤ 0.005). The final PK/PD model was evaluated with a non-parametric bootstrap using 502 replicates of the initial dataset. The generated median parameters and their CI95% were compared to the final model estimates. In addition, prediction-corrected visual predictive checks (pc-VPCs) were performed to diagnose potential model misspecification by visually comparing observed concentrations with prediction percentiles.

[2] = Exposure–response relationship: Cox proportional hazards models on progression-free survival; type: in vivo, human; conditions: human, plasma, oral; model-predicted, including OFF-treatment periods; read-out: median AUCcum90 (mean cumulative AUC0-24 over 90 days)
Text: (§1) To consider the time lapse between radiologic exams (i.e., every 3 months), mean cumulative AUC0-24 over 90 days (AUCcum90) was then predicted. This variable was selected as the exposure metric to be tested as a time-dependent covariate for its influence on PFS. In consideration of the limited number of patients progressing (n = 29), we only included age at treatment initiation as an additional covariate, with an interaction term between age and exposure. Cox proportional hazards models were estimated in R (2021) to evaluate the effect of these covariates on PFS (significance level: p ≤ 0.05).

metastatic breast cancer = experiment: as above; type: in vivo, human; conditions: 29 of 44 patients progressed
Text: as §1

[3] = tested on: absolute neutrophil count (ANC); conditions: cited from earlier work
[4] = co-administration of PPIs in fasting conditions, healthy volunteers; cited from earlier work
[5] = based on PK/PD modeling; cited from earlier work
[6] = tested on: absolute neutrophil count (ANC); conditions: final PK/PD model, FIX at literature value; cited from earlier work
[7] = bootstrap median (n = 502 samples)

ALAG (absorption lag time) (clinical): 2.0 h | ALAG (absorption lag-time) (clinical): 1.9 h | CL (clearance) (clinical): 68 L/h | CLIPP,no food (clearance with concomitant coadministration of IPP under fasting conditions) (clinical): 106 L/h | Vc (central volume of distribution) (clinical): 2730 L | Vc/F (apparent central volume of distribution) (clinical): 2778 L | clearance (clinical; CL (clearance)): 1130 mL/min | clearance (clinical; CLIPP,no food (clearance with concomitant coadministration of IPP under fasting conditions)): 1770 mL/min | Vd (clinical; Vc (central volume of distribution)): 2700 L | Vd/F (clinical; Vc/F (apparent central volume of distribution)): 2800 L
SMILES: CC(=O)c1c(C)c2cnc(Nc3ccc(N4CCNCC4)cn3)nc2n(C2CCCC2)c1=O [palbociclib, Palbociclib]
EC50 ([1]; Homo sapiens, Neutrophil, base model, attributed to data sparseness, not retained, read-out: estimated EC50 (Emax model, before fixing)): 0.0088 µg/mL (≈ 0.0197 µM) | Emax (maximum estimated drug effect on kprol) [1, 7]: 0.22 | ωEC50 (between-subject variability) [1, 7]: 91 CV% | ωEmax (between-subject variability) [1, 7]: 16 CV% | Emax (maximum estimated drug effect on kprol) ([1]; estimate): 0.22 | ωEC50 (between-subject variability) ([1]; estimate): 93 CV% | ωEmax (between-subject variability) ([1]; estimate): 15 CV% | mean cumulative AUC0-24 over 90 days (AUCcum90) [2]: 1140 ng·h/mL | median PFS (metastatic breast cancer): 17 months | EC50 literature value [3]: 0.0401 µg/mL (≈ 0.0896 µM) | decrease in AUC [4]: 62% | upper limit for trough concentration to avoid severe neutropenia [5]: 100 ng/mL | EC50 (palbociclib concentration corresponding to 50% of the maximum effect) [6]: 0.0401 µg/mL
